Laboratory results published in paper PMC5797143, “Epigenetic modulation of inflammation and synaptic plasticity promotes resilience against stress in mice” (Nature Communications, 2018).
Where two headings read alike, the source gives them in different places.

How the values were obtained:
[1] = tested on: HDAC2 and other class I or class II HDACs; assay: HDAC gene expression in MSN-enriched primary culture; type: cell-based, mouse; conditions: MSN-enriched primary cultures
Text: (§1) Stress-induced reduction of Rac1 expression is associated with a repressed chromatin state surrounding the promoter region of Rac1 in the NAc[11]. Since Mal-gluc can cross the BBB, we hypothesized that Mal-gluc may promote Rac1 expression, in part, by modulating chromatin acetylation. We first assessed the effect of Mal-gluc on HDACs that play key roles in chromatin deacetylation. […] Using site directed quantitative chromatin immunoprecipitation (qCHIP), we examined the permissive histone H3 acetylation (AcH3) in Mal-gluc treated MSN-enriched primary cultures.
Striatal tissue from E18 was mechanically triturated and centrifuged. Neurons were seeded onto a poly-D-lysine-coated 12-well plate at 5 × 10^5 cells/well and cultured in Neurobasal medium, supplemented with 2% B27, 0.5 mM L-glutamine, and 1% penicillin-streptomycin (Gibco-BRL, Invitrogen). Following 4 days in vitro (DIV), 5 µM of Ara-c was used to inhibit the growth of glial cells. Following 10-day DIV culturing, neurons were treated with select brain-bioavailable polyphenol metabolites for 16 h, washed once with cold PBS and RNA was then isolated. […]
Total RNA from MSN-enriched cultures or brain NAc was isolated using the RNeasy Mini Kit (Qiagen, Valencia, CA, USA) and reverse transcribed. Gene expression was measured in four replicates by quantitative RT-PCR using Maxima SYBR Green master mix (Fermentas) in ABI Prism 7900HT. […]

[2] = tested on: Rac1 promoter histone H3 acetylation / H3K27 trimethylation; assay: Quantitative ChIP along the Rac1 promoter in MSN-enriched primary cultures; type: cell-based, mouse
Text: as §1
Site-directed qChIP was performed for pan-acH3 and H3K27me3 as described previously with modification. Neurons were washed once with PBS and crosslinked in 1% formaldehyde for 15 min, quenched by glycine at a final concentration of 125 mM. Neurons were then rinsed with cold PBS containing protease inhibitor cocktail (Sigma) and scraped off the plate. Cells were resuspended and sonicated with a Bioruptor (15 cycles, 30 sec on/off), which produces chromatin fragments ~350 bp in length. […] Levels of specific histone modifications along the Rac1 promoter were determined by measuring the amount of acetylated or methylated histone-associated DNA using quantitative real-time PCR as previously described.

[3] = Cytotoxicity by high content screening (HCS); type: cell-based; conditions: human, HepG2 cells
Text: Based on the efficacy of DHCA/Mal-gluc in treating stress-induced depression, we initiated an in vitro toxicity and drug-like properties studies to investigate the potential of developing these two phytochemicals as novel therapies. […] At low concentrations, DHCA and Mal-gluc had no detectable effects on cell number, nuclear size, DNA structure, cell membrane permeability, mitochondrial mass, mitochondrial membrane potential or cytochrome C release in high content screening (HCS)[41] using HepG2 cells (Table 1). At high concentrations, Mal-gluc reduced cell number, increased nuclear size, […], and increased mitochondrial mass, with calculated EC50s beyond physiological concentration (Table 1).
MTT and LDH release assays were conducted in MSN-enriched primary neurons and in PBMCs[64]. Cellular cytotoxicity was conducted in HepG2 cells using high content screening (HCS) protocols. Briefly, HepG2 cells were plated on 384-well tissue culture treated black walled clear bottomed polystyrene plates and treated with varying concentrations of Mal-gluc or DHCA. The cells were loaded with the relevant dye/antibody for each cell-health marker following incubation, including cell count, markers for nuclear size, DNA structure, cell membrane permeability, mitochondrial mass, mitochondrial membrane potential and cytochrome C release. The plates were then scanned using an automated fluorescent cellular imager ArrayScanr (Thermo Scientific Cellomics).

| Structure (SMILES) | expression of HDAC2 [1] | expression of other class I or class II HDACs [1] | repressive trimethylation of the Rac1 promoter (H3K27) [2] | permissive histone H3 acetylation (AcH3) of Rac1 ([2]; compared to vehicle, across the region surveyed) | AC50 ([3]; DHCA ↑ (NS, fit not statistically significant), NR = No response observed, read-out: Cytotoxicity by HCS (AC50), Mitochondrial membrane potential) [µM] | AC50 ([3]; DHCA ↑, NR = No response observed, read-out: Cytotoxicity by HCS (AC50), Cytochrome C release) [µM] | AC50 ([3]; Malvidin-gluc ↑, NR = No response observed, read-out: Cytotoxicity by HCS (AC50), Mitochondrial mass) [µM] | AC50 ([3]; Malvidin-gluc ↑, NR = No response observed, read-out: Cytotoxicity by HCS (AC50), Nuclear size) [µM] | AC50 ([3]; Malvidin-gluc ↓, NR = No response observed, read-out: Cytotoxicity by HCS (AC50), Cell number) [µM] | AC50 ([3]; NR = No response observed, read-out: Cytotoxicity by HCS (AC50), DNA structure) [µM] | AC50 ([3]; both ↓, read-out: Cytotoxicity by HCS (AC50), Cell membrane permeability) [µM] |
| --- | --- | --- | --- | --- | --- | --- | --- | --- | --- | --- | --- |
| COc1cc(-c2[o+]c3cc(O)cc(O)c3cc2O[C@@H]2O[C@H](CO)[C@@H](O)[C@H](O)[C@H]2O)cc(OC)c1O [Mal-gluc] | significantly reduced the expression of HDAC2 | no observable effect | no effect on the repressive trimethylation | significantly increased permissive acetylation |  |  |  |  |  |  |  |
| O=C(O)CCc1ccc(O)c(O)c1 [DHCA, 3(3,4-dihydroxy-phenyl) propionic acid] |  |  |  |  | > 200 | > 200 | > 200 | > 200 | > 200 | > 200 | 56.6 |
